Experimental data reported in patent US6281354A, “Analogs of duocarmycin and cc-1065” (The Scripps Research Institute, priority 1999, dated 2001).
Like-named read-outs stand apart in the source and are kept apart here.

Legend:
[1] = system: duplex DNA (w794, w836, c988, c820, c1346); type: biochemical, SV40; conditions: for sequence preference at the alkylation site: consensus alkylation sequence; for alkylation of individual three-base sequences: 5'-TTA or 5'-ATA
w836 DNA = assay: DNA alkylation sites and relative rates within the six-base A sequence (5'-AAAAAA) of w836 DNA; type: biochemical, SV40; conditions: for alkylated adenines within six-base A-rich sequence of w836 DNA / AT-rich binding site covered in w836 DNA: 5'-AAAAAA
[2] = In vitro cytotoxic activity; conditions: for cytotoxic potency, effect of terminal N^2 substituent (18, 23, 24 compared): natural and unnatural enantiomers
w794 DNA [3] = assay: DNA alkylation (thermal strand cleavage, PAGE) within w794 DNA; type: biochemical, SV40
w794 DNA [4] = assay: Relative rates of DNA alkylation for (+)-1, 53 and 54 at the w794 5'-AATTA site; type: biochemical, SV40; conditions: for concentration dependence of the rate of DNA alkylation: 10^-4 -10^-6 M
Description: Modifications in the Trimethoxyindole Subunit: Role of the Methoxy Substituents. DNA alkylation by the natural enantiomers of 53-56 were compared with that of 1 in w794 DNA.
Relative Rates of DNA Alkylation for (+)-1, 53, and 54. Following the procedure detailed above, Eppendorf tubes containing 5' end-labeled w794 DNA (9 μL) in TE buffer (pH 7.5) were treated with (+)-duocarmnycin SA, 53, or 54 (1 μL, 10^-5 M in DMSO). […] The solutions were mixed and incubated at 25° C. for 1, 3, 6, 12, 24, 48, and 72 h, respectively. Subsequent isolation of the alkylated DNA by EtOH precipitation, resuspension in TE buffer (10 μL, pH 7.5), thermolysis (30 min, 100° C.), concurrent PAGE, and autoradiography were conducted as detailed above. The relative rate for the alkylation at the 5'-AATTA site was derived from the slopes of the plots of percent integrated optical density (IOD) of the high affinity alkylation site cleavage bands versus time.

[5] = natural enantiomers, 25° C., 24 h
[6] = 5×10^-6 M agent (so in the source), 25° C., w836 5'-AAAAAA

COC(=O)c1cc2c3c(ccc2[nH]1)N(C(=O)c1cc2c([nH]1)C(=O)C=C1N(C(=O)c4cc5c6c(ccc5[nH]4)N(C(N)=O)CC6)CC4CC124)CC3 (single isomer, unassigned; (+)) [(+)-30]
AT-rich adenine N3 alkylation selectivity (size of site) [1]: 5 base-pair | sequence preference at the alkylation site [1]: 5'-AAA>5'-AAT≥5'TAA>5 TAT | alkylated adenines within six-base A-rich sequence of w836 DNA (w836 DNA): alkylated those central to the sequence

COC(=O)c1cc2cc(NC(=O)c3cc4cc(NC(=O)c5cc6c([nH]5)C(=O)C=C5N(C(C)=O)CC7CC567)ccc4[nH]3)ccc2[nH]1 (stereo not drawn) [compound 23, N-{2-[N-(2-Methoxycarbonyl-1H-indol-5-yl)]carbamoyl-1H-indol-5-yl}-2-acetyl-1,2,8,8a-tetrahydrocyclopropa[c]pyrrolo[3,2-e]indole4-one-6-carboxamide]
comparison of DNA alkylation selectivity [1]: no differences in their DNA alkylation selectivity | less efficient at alkylating DNA than DSA-indole2 [1]: ca. 100 × | more efficient DNA alkylation than the BOC derivative 18 [1]: 2-5 × | slower DNA alkylation than DSA-indole2 [1]: ca. 1000 × | unnatural enantiomer less effective at DNA alkylation than natural enantiomer [1]: approximately 10 × | cytotoxic potency, effect of terminal N^2 substituent (18, 23, 24 compared) [2]: essentially indistinguishable | cytotoxic potency compared with simple derivatives N--BOC-DSA (4) and N--Ac-DSA ([2]; natural enantiomers): essentially indistinguishable

COC(=O)c1cc2c3c(ccc2[nH]1)N(C(=O)c1cc2c4c(ccc2[nH]1)N(C(=O)c1cc2c([nH]1)C(=O)C=C1N(C(=O)OC(C)(C)C)C[C@@H]5C[C@@]125)CC4)CC3 [ent-(-)-CDPI2 -DSA]
AT-rich adenine N3 alkylation selectivity (size of site) [1]: 5 base-pair | alkylation of individual three-base sequences [1]: under represented alkylation of 5'-ATA | sequence preference at the alkylation site [1]: 5'-AAA>5'-TAA>5'-TTA>5'-ATA | high affinity alkylation site in w794 DNA (w794 DNA [3]): 5'-AATTA

COC(=O)c1cc2cc(NC(=O)c3cc4cc(NC(=O)c5cc6c([nH]5)C(=O)C=C5N(C(=O)OC(C)(C)C)CC7CC567)ccc4[nH]3)ccc2[nH]1 (stereo not drawn) [compound 18, N-{2-[N-(2-Methoxycarbonyl-1H-indol-5-yl)]carbamoyl-1H-indol-5-yl}-2-(tert-butyloxycarbonyl)-1,2,8,8a-tetrahydrocyclopropa[c]pyrrolo[3,2-e]indol-4-one-6-carboxamide]
AT-rich adenine N3 alkylation selectivity (size of site) [1]: 5 base-pair | comparison of DNA alkylation selectivity [1]: no differences in their DNA alkylation selectivity | less efficient at alkylating DNA than DSA-indole2 [1]: ca. 100 × | slower DNA alkylation than DSA-indole2 [1]: ca. 1000 × | unnatural enantiomer less effective at DNA alkylation than natural enantiomer [1]: approximately 10 × | cytotoxic potency, effect of terminal N^2 substituent (18, 23, 24 compared) [2]: essentially indistinguishable | cytotoxic potency compared with simple derivatives N--BOC-DSA (4) and N--Ac-DSA ([2]; natural enantiomers): essentially indistinguishable

COC(=O)c1cc2c3c(ccc2[nH]1)N(C(=O)c1cc2c([nH]1)C(=O)C=C1N(C(=O)c4cc5c6c(ccc5[nH]4)N(C(N)=O)CC6)CC4CC124)CC3 (single isomer, unassigned) [ent-(-)-30]
sequence preference at the alkylation site [1]: 5'-AAA>5'-AAT≥5'TAA>5 TAT | alkylated adenines within six-base A-rich sequence of w836 DNA (w836 DNA): alkylated those central to the sequence

COC(=O)c1cc2c([nH]1)C(=O)C=C1N(C(=O)c3cc4c5c(ccc4[nH]3)N(C(N)=O)CC5)CC3CC123 (single isomer, unassigned; (+)) [(+)-DSA-CDPI1]
alkylation of the minor w794 site (5'-CAAAG) (w794 DNA [3]): prominently alkylates | concentration required at minor site (5'-CAAAG) relative to major 5'-AATTA site (w794 DNA [3]): 10 x

COC(=O)c1cc2cc(NC(=O)c3cc4cc(NC(=O)c5cc6c([nH]5)C(=O)C=C5NCC7CC567)ccc4[nH]3)ccc2[nH]1 (stereo not drawn) [compound 24]
DNA alkylation efficiency relative to 18 [1]: about an order of magnitude less efficient | comparison of DNA alkylation selectivity [1]: no differences in their DNA alkylation selectivity | less efficient at alkylating DNA than DSA-indole2 [1]: ca. 100 × | slower DNA alkylation than DSA-indole2 [1]: ca. 1000 × | unnatural enantiomer less effective at DNA alkylation than natural enantiomer [1]: approximately 10 × | cytotoxic potency, effect of terminal N^2 substituent (18, 23, 24 compared) [2]: noticeably less potent

COc1c(O)c2c(c3cc(C(=O)N4CCc5c4c(O)c(OC)c4[nH]c(C(=O)N6CC7CC78C6=CC(=O)c6[nH]cc(C)c68)cc54)[nH]c13)CCN2C(N)=O (stereo not drawn) [ent-(-)-CC-1065, reference compound]
AT-rich adenine N3 alkylation selectivity (size of site) [1]: 5 base-pair | high affinity alkylation site in w794 DNA (w794 DNA [3]): 5'-AATTT

COC(=O)c1cc2c([nH]1)C(=O)C=C1N(C(=O)c3cc4ccccc4[nH]3)CC3CC123 (single isomer, unassigned) [compound 53, Methyl 2-[(Indol-2-yl)carbonyl]-1,2,8,8a-tetrahydrocyclopropa[c]pyrrolo[3,2-e]indol-4-one-6-carboxylate]
less effective at DNA alkylation than duocarmycin SA (w794 DNA [3]; (+) enantiomer): 6-10 × | less efficient DNA alkylation than 1 (w794 DNA [3]; [5]): 20 × | concentration dependence of the rate of DNA alkylation (w794 DNA [4]): independent of agent concentration

COC(=O)c1cc2c3c(ccc2[nH]1)N(C(=O)c1cc2c4c(ccc2[nH]1)N(C(=O)c1cc2c([nH]1)C(=O)C=C1N(C(=O)OC(C)(C)C)C[C@H]5C[C@]125)CC4)CC3 [(+)-CDPI2 -DSA]
AT-rich adenine N3 alkylation selectivity (size of site) [1]: 5 base-pair | sequence preference at the alkylation site [1]: 5'-AAA>5'-AAT≥5'-TAA>5'-TAT | alkylation at the natural-enantiomer high affinity site (5'-AATTA) (w794 DNA [3]): without detectable alkylation | high affinity alkylation site in w794 DNA (w794 DNA [3]): 5'-AATTT

COC(=O)c1cc2c([nH]1)C(=O)C=C1N(C(=O)c3cc4ccc(OC)cc4[nH]3)CC3CC123 (single isomer, unassigned) [compound 55, Methyl 2-[(6-Methoxyindol-2-yl)carbonyl]-1,2,8,8a-tetrahydrocyclopropa[c]-pyrrolo[3,2-e]indol-4-one-6-carboxylate]
less efficient DNA alkylation than 1 (w794 DNA [3]; [5]): 5-10 ×

COC(=O)c1cc2c3c(ccc2[nH]1)N(C(=O)c1cc2c4c(ccc2[nH]1)N(C(=O)c1cc2c([nH]1)C(=O)C=C1N(C(=O)OC(C)(C)C)CC5CC125)CC4)CC3 (stereo not drawn) [compound 20, 6-[7-[Methyl 1,2-Dihydro-(3H-pyrrolo[3,2-e]indole-3-yl)carbonyl-7-carboxylate]1,2-dihydro-(3H-pyrrolo[3,2-e]indole-3-yl)carbonyl]-2-((tert-butyloxy)carbonyl)-1,2,8,8a-tetrahydrocyclopropa[c]pyrrolo[3,2-e]indol-4-one]
alkylated adenines within six-base A-rich sequence of w836 DNA (w836 DNA): the natural enantiomer of 20 alkylated the same sites as ent-(-)-DSA-CDPI2 while the unnatural enantiomer of 20 alkylated the same sites as the natural enantiomer (+)-DSA-CDPI2 | time required to reach a detectable and diminished level of DNA alkylation (w836 DNA; 5×10^-6 M agent (so in the source), 25° C., both enantiomers): 72 h | more potent cytotoxicity than simple derivatives N--BOC-DSA (4) and N--Ac-DSA ([2]; natural enantiomers): less than 10 × | cytotoxic potency of the two enantiomers compared ([2]; natural versus unnatural enantiomer): nearly equipotent

COC(=O)c1cc2c3c(ccc2[nH]1)N(C(=O)c1cc2c([nH]1)C(=O)C=C1N(C(=O)c4cc5c6c(ccc5[nH]4)N(C(N)=O)CC6)CC4CC124)CC3 (stereo not drawn) [compound 30]
AT-rich adenine N3 alkylation selectivity (size of site) [1]: 5 base-pair | time after which extensive DNA alkylation is exhibited (w836 DNA; [6]): 1 to 5 min | cytotoxic potency compared with typical agents [2]: essentially equipotent with the typical agents

COC(=O)c1cc2c([nH]1)C(=O)C=C1N(C(=O)c3cc4cccc(OC)c4[nH]3)CC3CC123 (single isomer, unassigned) [compound 56, Methyl 2-[(7-Methoxyindol-2-yl)carbonyl]-1,2,8,8a-tetrahydrocyclopropa[c]pyrrolo[3,2-e]indol-4-one-6-carboxylate]
less efficient DNA alkylation than 1 (w794 DNA [3]; [5]): 5-10 ×

COC(=O)c1cc2c([nH]1)C(=O)C=C1N(C(=O)c3cc4c5c(ccc4[nH]3)N(C(=O)c3cc4c6c(ccc4[nH]3)N(C(N)=O)CC6)CC5)CC3CC123 (single isomer, unassigned; (+)) [(+)-DSA-CDPI2]
AT-rich adenine N3 alkylation selectivity (size of site) [1]: 5 base-pair | alkylation of individual three-base sequences [1]: unusually effective alkylation of 5'-TTA | sequence preference at the alkylation site [1]: 5'-AAA>5'-TTA>5'-TAA≥5'-ATA | alkylation of the minor w794 site (5'-CAAAG) (w794 DNA [3]): failed to alkylate | high affinity alkylation site in w794 DNA (w794 DNA [3]): 5'-AATTA | AT-rich binding site covered in w836 DNA (w836 DNA): 5 base-pair | alkylated adenines within six-base A-rich sequence of w836 DNA (w836 DNA): only the 3' adenines | time after which extensive DNA alkylation is exhibited (w836 DNA; [6]): 1 to 5 min

COC(=O)c1cc2c([nH]1)C(=O)C=C1N(C(=O)c3cc4c5c(ccc4[nH]3)N(C(=O)c3cc4c6c(ccc4[nH]3)N(C(N)=O)CC6)CC5)CC3CC123 (single isomer, unassigned) [ent-(-)-DSA-CDPI2]
AT-rich adenine N3 alkylation selectivity (size of site) [1]: 5 base-pair | high affinity alkylation site in w794 DNA (w794 DNA [3]): 5'-AATTT | high affinity alkylation site in w794 DNA (w794 DNA [3]; listed as (-)-DSA-CDPI2): 5'-AATTT | AT-rich binding site covered in w836 DNA (w836 DNA): 5 base-pair | alkylated adenines within six-base A-rich sequence of w836 DNA (w836 DNA): 5' terminal adenines | time required to approach the same level of DNA alkylation as (+)-DSA-CDPI2 (w836 DNA; 5×10^6 M agent (so in the source), 25° C., w836 5'-AAAAAA): 6 h

COC(=O)c1cc2c([nH]1)C(=O)C=C1N(C(=O)c3cc4cc(OC)ccc4[nH]3)CC3CC123 (single isomer, unassigned) [compound 54, Methyl 2-[(5-Methoxyindol-2-yl)carbonyl]-1,2,8,8a-tetrahydrocyclopropa[c]pyrrolo[3,2-e]indol-4-one-6-carboxylate]
DNA alkylation compared with duocarmycin SA (1), in words (w794 DNA [3]; [5]): essentially indistinguishable from 1 | concentration dependence of the rate of DNA alkylation (w794 DNA [4]): independent of agent concentration | relative rate of DNA alkylation κrel versus 53 (w794 DNA [4]; 10^-5 M, 25° C., 1-72 h, 5'-d(AATTA)): 18-33
